# From ChEMBL document CHEMBL3301361, “Experimental in vitro DMPK and physicochemical data on a set of publicly disclosed compounds”
# Legend:
# [1] = physchem; conditions: octan-1-ol/water
# [2] = physchem; conditions: pH 7.4 buffer
structure (smiles),measurement,setting,value
Cc1cccc(C[C@H](NC(=O)c2cc(C(C)(C)C)nn2C)C(=O)NCC#N)c1,logD,"[1]; pH 7.4, LogD7.4",3.1
same,solubility thermodynamic,[2],63.1 µM
COc1cc2ncnc(Nc3cc4ccccc4cn3)c2cc1OC,logD,"[1]; pH 7.4, LogD7.4",3.9
same,solubility thermodynamic,[2],0.3 µM
CCCN(CCO)CCCOc1ccc2c(Nc3cc(CC(=O)Nc4cccc(F)c4F)[nH]n3)ncnc2c1,logD,"[1]; pH 7.4, LogD7.4",2.19
same,solubility thermodynamic,[2],5.8 µM
Cc1ncc(-c2ccnc(Nc3ccc(F)cc3)n2)n1C(C)C,logD,"[1]; pH 7.4, LogD7.4",3.62
same,solubility thermodynamic,[2],107 µM
O=C(CN1CCOCC1)Nc1ccc(-c2cccc3c(=O)cc(N4CCOCC4)oc23)cc1OCC1CC1,logD,"[1]; pH 7.4, LogD7.4",3.3
same,solubility thermodynamic,[2],1.5 µM
Cc1ncc(C(N)=O)nc1-c1ccc([C@H]2CC[C@H](C(=O)O)CC2)cc1,logD,"[1]; pH 7.4, LogD7.4",0.22
same,solubility thermodynamic,[2],1230 µM
CC(C)(C)c1cc2nc3c(c(O)n2n1)CN(Cc1ccccc1)C3=O,logD,"[1]; pH 7.4, LogD7.4",1.9
same,solubility thermodynamic,[2],25.1 µM
O=S(=O)(c1cccc(-c2cn3cccnc3n2)c1)N1CCOCC1,logD,"[1]; pH 7.4, LogD7.4",1.3
same,solubility thermodynamic,[2],39.8 µM
O=C(Nc1ccc(N2CCOCC2)nc1)c1nnc(Nc2ccccc2)o1,logD,"[1]; pH 7.4, LogD7.4",2.9
same,solubility thermodynamic,[2],1.9 µM
C[C@H](NC1=NC(=O)C(C)(C(F)(F)F)S1)c1ccccc1F (some centres not stated),logD,"[1]; pH 7.4, LogD7.4",3.1
same,solubility thermodynamic,[2],339 µM
COc1ccc(C(=O)Nc2cccc(NC(=O)c3cccc(N(C)C)c3)c2)cc1OC,logD,"[1]; pH 7.4, LogD7.4",3.67
same,solubility thermodynamic,[2],1.4 µM
COc1ccc(S(=O)(=O)Nc2ccc(/C=C/C(=O)Nc3ccccc3N)cc2)cc1OC,logD,"[1]; pH 7.4, LogD7.4",2.56
same,solubility thermodynamic,[2],7.8 µM
CCOC(=O)c1ccc(COCC2CCN(c3ccc(C)nn3)CC2)cc1,logD,"[1]; pH 7.4, LogD7.4",2.68
same,solubility thermodynamic,[2],468 µM
Cc1cc(Nc2nc(NCc3cc(C)no3)ncc2Br)[nH]n1,logD,"[1]; pH 7.4, LogD7.4",2.92
same,solubility thermodynamic,[2],61.7 µM
Clc1ccc(CN(Cc2ccc(Cl)cc2)c2nnn[nH]2)cc1,logD,"[1]; pH 7.4, LogD7.4",2.74
same,solubility thermodynamic,[2],118 µM
O=C(CO)N1CCC[C@H]1COc1cccc2ncnc(Nc3ccc(OCc4ccccn4)c(Cl)c3)c12,logD,"[1]; pH 7.4, LogD7.4",3.62
same,solubility thermodynamic,[2],1.9 µM
COc1cc2ncnc(Nc3cccc(Cl)c3F)c2cc1CN1C[C@H](OC)C[C@@H]1C(N)=O,logD,"[1]; pH 7.4, LogD7.4",3.09
same,solubility thermodynamic,[2],436 µM
Cc1ccc(NC(=O)c2cccnc2)cc1-n1cnc2ccc(N3CCN(C)CC3)cc2c1=O,logD,"[1]; pH 7.4, LogD7.4",1.5
same,solubility thermodynamic,[2],251 µM
COc1cc(C(=O)NS(=O)(=O)c2ccccc2C)ccc1Cc1cn(C)c2ccc(C(=O)NCCc3ccccc3)cc12,logD,"[1]; pH 7.4, LogD7.4",2.51
same,solubility thermodynamic,[2],144 µM
Cn1cnc(-c2ccccc2)c1-c1nc2c(N)ncnc2s1,logD,"[1]; pH 7.4, LogD7.4",2.69
same,solubility thermodynamic,[2],162 µM
C[C@@H]1CN(Cc2ccc(F)cc2)[C@@H](C)CN1C(=O)c1cc2c(C(=O)C(=O)N(C)C)cn(C)c2cc1Cl [TALMAPIMOD],logD,[1]; pH 7.4,3.6
same,solubility thermodynamic,[2],52.5 µM
O=C(NCc1ccncc1)c1ccc(Oc2ccc(C#CC3(O)CN4CCC3CC4)cc2)cc1 (configuration not stated),logD,[1]; pH 7.4,2.48
same,solubility thermodynamic,[2],269 µM
CC[C@@H]1COCCN1c1cc(C2(S(C)(=O)=O)CC2)nc(-c2cccc3[nH]ccc23)n1,logD,"[1]; pH 7.4, LogD7.4",3
same,solubility thermodynamic,[2],79.4 µM
CNC(=O)c1ccc2c(=O)cc(-c3cccnc3)[nH]c2c1,logD,"[1]; pH 7.4, LogD7.4",1.01
same,solubility thermodynamic,[2],309 µM
COc1cc2ncnc(Nc3ccc(F)c(Cl)c3)c2cc1OC,logD,"[1]; pH 7.4, LogD7.4",3.67
same,solubility thermodynamic,[2],7.2 µM
O=C(CCN1CCCCC1)Nc1ccc(-c2cccn3c(=O)cc(N4CCOCC4)nc23)c2sc3ccccc3c12,logD,"[1]; pH 7.4, LogD7.4",2.9
same,solubility thermodynamic,[2],16.6 µM
COc1cc2c(Nc3cc(CC(=O)Nc4cccc(F)c4F)[nH]n3)ncnc2cc1OCCCN(CCO)CC(C)C,logD,"[1]; pH 7.4, LogD7.4",3.61
same,solubility thermodynamic,[2],132 µM
Cc1ccc(Oc2ccnc(Nc3ccc(S(N)(=O)=O)cc3)c2)c(C)n1,logD,"[1]; pH 7.4, LogD7.4",2.47
same,solubility thermodynamic,[2],4.2 µM
COc1cc2c(Nc3cnc(NC(=O)c4ccccc4)nc3)ncnc2cc1OCCCN1CCOCC1,logD,"[1]; pH 7.4, LogD7.4",2.7
same,solubility thermodynamic,[2],3.6 µM
O=C(c1ccc(F)cc1)C1CCN(C(=O)NCc2ccccc2)CC1,logD,"[1]; pH 7.4, LogD7.4",3.15
same,solubility thermodynamic,[2],10 µM
CC12CCC(=O)C=C1CCC1C2CCC2(C)C(O)CCC12 (configuration not stated),logD,[1]; pH 7.4,3.3
same,solubility thermodynamic,[2],40.7 µM
CCCNCc1cnc(-c2ccc(C(=O)Nc3ccccc3N)cc2)s1,logD,"[1]; pH 7.4, LogD7.4",1.75
same,solubility thermodynamic,[2],676 µM
Cn1c(=O)c2[nH]c(-c3cccnc3)nc2n(C)c1=O,logD,"[1]; pH 7.4, LogD7.4",0.7
same,solubility thermodynamic,[2],219 µM
Cc1cc(C)cc(-c2[nH]c3sc(C(C)(C)C(=O)N4C5CCC4CC5)cc3c2CCN2CCN(CC(=O)N(C)C)CC2)c1,logD,"[1]; pH 7.4, LogD7.4",4.13
same,solubility thermodynamic,[2],100 µM
Nc1nc(-c2ccc(Cl)cc2)cs1,logD,"[1]; pH 7.4, LogD7.4",3.31
same,solubility thermodynamic,[2],83.2 µM
O=C(NCC(=O)N(CCO)c1ccccc1)c1cc2cc(Cl)ccc2[nH]1,logD,"[1]; pH 7.4, LogD7.4",3.37
same,solubility thermodynamic,[2],1.8 µM
CSCc1cc(N2CCOCC2)nc(-c2ccccc2)n1,logD,"[1]; pH 7.4, LogD7.4",3.26
same,solubility thermodynamic,[2],55 µM
COc1ccc(C)c(N(C)c2ccnc(Nc3cc(N4CCOCC4)cc(N4CCOCC4)c3)n2)c1,logD,"[1]; pH 7.4, LogD7.4",3.18
same,solubility thermodynamic,[2],11.5 µM
COc1cc(Nc2cc(Oc3ccc(C)nc3)ccn2)cc(OC)c1OC,logD,"[1]; pH 7.4, LogD7.4",3.21
same,solubility thermodynamic,[2],31.6 µM
COc1ccc(Cc2nccc3cc(OC)c(OC)cc23)cc1OC [PAPAVERINE],logD,[1]; pH 7.4,2.81
same,solubility thermodynamic,[2],38 µM
Cc1cc(C)cc(-c2[nH]c3ccc(C(C)(C)C(=O)N4C5CCC4CC5)cc3c2[C@H](C)CNCCc2ccncc2)c1,logD,"[1]; pH 7.4, LogD7.4",4.35
same,solubility thermodynamic,[2],148 µM
Cc1sc(N2CCN(C)CC2)nc1CCOc1ccc(C[C@H](Nc2ccccc2C(=O)c2ccccc2)C(=O)O)cc1,logD,"[1]; pH 7.4, LogD7.4",2.58
same,solubility thermodynamic,[2],97.7 µM
CSc1nc(N)nc(-c2ccccc2)n1,logD,"[1]; pH 7.4, LogD7.4",2.98
same,solubility thermodynamic,[2],24 µM
CCN1C(=O)N(C)c2cnc(Nc3ccc(C(=O)NC4CCN(C)CC4)cc3OC)nc2N1C1CCCC1,logD,"[1]; pH 7.4, LogD7.4",2.75
same,solubility thermodynamic,[2],603 µM
O=C(CCc1ccncc1)Nc1ccc(C(=O)c2ccccc2)cc1,logD,"[1]; pH 7.4, LogD7.4",3.4
same,solubility thermodynamic,[2],8.1 µM
CNc1cccc(CCOc2ccc(C[C@H](NC(=O)c3ccccc3Cl)C(=O)O)cc2)n1,logD,"[1]; pH 7.4, LogD7.4",-0.31
same,solubility thermodynamic,[2],398 µM
Cc1nc(CSc2ccc(Cl)cc2)cc(N2CCOCC2)n1,logD,"[1]; pH 7.4, LogD7.4",3.38
same,solubility thermodynamic,[2],107 µM
Cc1cc(Nc2ccnc(NCc3cc(C4CC4)no3)n2)n[nH]1,logD,"[1]; pH 7.4, LogD7.4",2.5
same,solubility thermodynamic,[2],63.1 µM
Cc1ccc(NC(=O)c2ccnc(N3CCOCC3)c2)cc1Nc1ccnc(OCC(C)(C)CN(C)C)n1,logD,"[1]; pH 7.4, LogD7.4",2.2
same,solubility thermodynamic,[2],490 µM
O=S(=O)(Nc1nc(-c2sccc2Cl)cs1)c1cc(Cl)ccc1Cl,logD,"[1]; pH 7.4, LogD7.4",2.11
same,solubility thermodynamic,[2],151 µM
Cn1c2ccccc2c2cc(NC(=O)CCc3ccncc3)ccc21,logD,"[1]; pH 7.4, LogD7.4",3.8
same,solubility thermodynamic,[2],11 µM
C[C@@H]1CN(C(=O)OC(C)(C)C)CCN1c1ncc(OCc2ccc(C#N)cc2)cn1,logD,"[1]; pH 7.4, LogD7.4",2.89
same,solubility thermodynamic,[2],3.4 µM
CCCSc1nc(N2CCC[C@H](CC(=O)O)C2)ccc1C(=O)NC1CCCCC1,logD,"[1]; pH 7.4, LogD7.4",2.18
same,solubility thermodynamic,[2],174 µM
CCN(CC)c1ncnc2c1ncn2Cc1c(Cl)cccc1Cl,logD,[1]; pH 7.4,1.25
same,solubility thermodynamic,[2],2.3 µM
Cc1ncc(-c2ccnc(Nc3ccc(S(N)(=O)=O)cc3)n2)n1C,logD,"[1]; pH 7.4, LogD7.4",1.6
same,solubility thermodynamic,[2],36.3 µM
CCn1c(=O)c2[nH]c(-c3ccccc3)nc2n(CC)c1=O,logD,"[1]; pH 7.4, LogD7.4",3.3
same,solubility thermodynamic,[2],2.1 µM
